Test results taken from patent US12319689B2, “Methyl- and trifluoromethyl-containing disubstituted sulfonamide selective BCL-2 inhibitor” (CHIA TAI TIANQING PHARMACEUTICAL GROUP CO., LTD., priority 2019, dated 2025).

Experiments:
BCL-2/BAK = molecular target: T1, BCL-2/BAK (Homo sapiens, UniProt P10415); test: Inhibitory activity for BCL-2/BAK binding (Cisbio BCL-2/BAK (BH3) binding assay kit)
T1 construct: purchased Cisbio 63ADK000CB01PEG
Protocol: 500 nM Tag1-BCL-2 protein stock solution and 20 μM Tag2-BAK protein stock solution were diluted to 5 nM and 120 nM respectively with dilution buffer in kit (name: BCL-2/BAK (BH3) BINDING ASSAY KITS, cat. No.: 63ADK000CB01PEG, from Cisbio). 5 μL of Tag1-BCL-2 protein diluent was added to each well, then test compounds dissolved with DMSO were added to the wells with a nanoliter pipettor, allowing the final compound concentrations to be 200 nM to 0.0488 nM (4-fold gradient for 7 concentrations in total). Blank control wells (without enzyme) and negative control wells (with enzyme, plus vehicle DMSO) were set, and 2 replicate wells were set. Finally, 5 μL of Tag2-BAK protein diluent was added to each well, and the mixture was mixed well by centrifugation and incubated at 25° C. for 15 min. 100× anti-Tag1-Eu^3+ and 100× anti-Tag2-XL665 were both diluted to 1× working concentration with the detection buffer in the kit. Anti-Tag1-Eu^3+ and anti-Tag2-XL665 were mixed well in a 1:1 ratio, and the mixture was added to wells at 5 μL/well, and incubated at 25° C. for 2 h or more. The plate was read using a PE Envision multi-functional microplate reader ([…], emission: 665 nm) and IC50 (shown in Table 2) was calculated by four-parameter fitting.

BCL-XL/BAK = molecular target: T2, BCL-XL/BAK (Homo sapiens, UniProt Q07817); test: Inhibitory activity for BCL-XL/BAK binding (Cisbio BCL-XL/BAK (BH3) binding assay kit)
T2 construct: purchased Cisbio 63ADK000CB04PEG
Protocol: 300 nM Tag1-BCL-XL protein stock solution and 10 μM Tag2-BAK protein stock solution were diluted to 2 nM and 80 nM respectively with dilution buffer in kit (name: BCL-XL/BAK (BH3) BINDING ASSAY KITS, cat. No.: 63ADK000CB04PEG, from Cisbio). 5 μL of Tag1-BCL-XL protein diluent was added to each well, then different test compounds dissolved with DMSO were added to the wells with a nanoliter pipettor, allowing the final compound concentrations to be 2000 nM to 0.488 nM (4-fold gradient for 7 concentrations in total). Blank control wells (without enzyme) and negative control wells (with enzyme, plus vehicle DMSO) were set, and 2 replicate wells were set. Finally, 5 μL of Tag2-BAK protein diluent was added to each well, and the mixture was mixed well by centrifugation and incubated at 25° C. for 15 min. 100× anti-Tag1-Eu^3+ and 100× anti-Tag2-XL665 were both diluted to 1× working concentration with the detection buffer in the kit. Anti-Tag1-Eu^3+ and anti-Tag2-XL665 were mixed well in a 1:1 ratio, and the mixture was added to wells at 5 μL/well, and incubated at 25° C. for 2 h or more. The plate was read using a PE Envision multi-functional microplate reader ([…], emission: 665 nm) and IC50 (shown in Table 2) was calculated by four-parameter fitting.

RS4;11 cells = test: Inhibition of proliferation of RS4;11 human acute lymphocytic leukemia cells (CCK-8); assay type: cell-based; settings: 72 h compound exposure, CCK-8, 5% serum
Protocol: RS4;11 cells (from ATCC) in logarithmic growth phase and good cell condition were added to a centrifuge tube and centrifuged at 1500 rpm for 3 min in a low speed centrifuge. The supernatant was discarded, and 5 mL of complete medium (RPMI basic medium+10% FBS) was added using a pipette for cell resuspension. The cells were counted using a cell counter, diluted with complete medium to a cell density of 2×10^5 cells/mL, and an equivalent amount of RPMI basic medium was added to adjust the serum concentration to 5% and the cell density to 1×10^5 cells/mL for plate seeding. The cells were seeded on a 96-well plate at 100 μL/well using a pipettor, and incubated in an incubator at 37° C., 5% CO2 with saturated humidity. After 24 h of incubation, compounds were loaded using a nanoliter pipettor, 2 duplicate wells were set for each concentration, and cells without compound were used as negative controls. […] Inhibition rate (%)=(mean value of negative control group−mean value of experimental group)/(mean value of negative control group−mean value of blank group)×100%. A dose-response curve was fitted by four-parameter analysis, with the logarithm of compound concentration serving as abscissa and inhibition rate serving as ordinate, so that IC50 was calculated (Table 1).

T1 sequence (P10415 whole entry): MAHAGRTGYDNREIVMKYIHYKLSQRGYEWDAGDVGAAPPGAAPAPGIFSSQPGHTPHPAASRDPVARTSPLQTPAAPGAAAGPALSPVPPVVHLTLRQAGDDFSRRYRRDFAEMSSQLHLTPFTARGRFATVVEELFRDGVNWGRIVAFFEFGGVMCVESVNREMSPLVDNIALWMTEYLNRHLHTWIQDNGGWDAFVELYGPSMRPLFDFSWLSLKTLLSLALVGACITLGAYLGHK
T2 sequence (Q07817 whole entry): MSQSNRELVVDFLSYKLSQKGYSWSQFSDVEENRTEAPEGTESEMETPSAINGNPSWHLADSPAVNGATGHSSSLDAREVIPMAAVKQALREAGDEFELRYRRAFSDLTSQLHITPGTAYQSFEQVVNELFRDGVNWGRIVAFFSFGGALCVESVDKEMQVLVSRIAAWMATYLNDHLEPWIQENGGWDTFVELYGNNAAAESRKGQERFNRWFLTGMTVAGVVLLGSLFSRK

IC50 (BCL-2/BAK) [nM]	IC50 (BCL-XL/BAK) [nM]	IC50 (RS4;11 cells) [nM]	Compound
1.53	261	–	Cc1cc(C(F)(F)F)ccc1C1=C(CN2CCN(c3ccc(C(=O)NS(=O)(=O)c4ccc(NC[C@H]5CCCOC5)c([N+](=O)[O-])c4)c(Oc4cnc5[nH]ccc5c4)c3)CC2)CCC(C)(C)C1 [Compound 15-1, (R)-4-(4-{[2-(2-methyl-4-trifluoromethylphenyl)-4,4-dimethylcyclohex-1-enyl]methyl}-piperazin-1-yl)-N-({3-nitro-4-[((tetrahydropyran-3-yl)methyl)amino]phenyl}sulfonyl)-2-(1H-pyrrolo[2,3-b]pyridin-5-yloxy)-benzamide]
2.07	144	–	Cc1cc(C(F)(F)F)ccc1C1=C(CN2CCN(c3ccc(C(=O)NS(=O)(=O)c4ccc(NC[C@@H]5CCCOC5)c([N+](=O)[O-])c4)c(Oc4cnc5[nH]ccc5c4)c3)CC2)CCC(C)(C)C1 [Compound 16-1, (S)-4-(4-{[2-(2-methyl-4-trifluoromethylphenyl)-4,4-dimethylcyclohex-1-enyl]methyl}-piperazin-1-yl)-N-({3-nitro-4-[((tetrahydropyran-3-yl)methyl)amino]phenyl}sulfonyl)-2-(1H-pyrrolo[2,3-b]pyridin-5-yloxy)-benzamide]
0.72	115	5.5	Cc1cc(C(F)(F)F)ccc1C1=C(CN2CCN(c3ccc(C(=O)NS(=O)(=O)c4ccc(NC[C@@H]5CN(C(=O)C(C)C)CCO5)c([N+](=O)[O-])c4)c(Oc4cnc5[nH]ccc5c4)c3)CC2)CCC(C)(C)C1 [Compound 21-1, (R)-4-(4-{[2-(2-methyl-4-trifluoromethylphenyl)-4,4-dimethylcyclohex-1-enyl]methyl}-piperazin-1-yl)-N-({3-nitro-4-[((4-isobutyrylmorpholin-2-yl)methyl)amino]phenyl}sulfonyl)-2-(1H-pyrrolo[2,3-b]pyridin-5-yloxy)-benzamide]
1.31	105	2.2	Cc1cc(C(F)(F)F)ccc1C1=C(CN2CCN(c3ccc(C(=O)NS(=O)(=O)c4ccc(NC[C@H]5CN(S(C)(=O)=O)CCO5)c([N+](=O)[O-])c4)c(Oc4cnc5[nH]ccc5c4)c3)CC2)CCC(C)(C)C1 [Compound 22-1, (S)-4-(4-{[2-(2-methyl-4-trifluoromethylphenyl)-4,4-dimethylcyclohex-1-enyl]methyl}-piperazin-1-yl)-N-({3-nitro-4-[((4-(methylsulfonyl)morpholin-2-yl)methyl)amino]phenyl}sulfonyl)-2-(1H-pyrrolo[2,3-b]pyridin-5-yloxy)-benzamide]
